Measurements taken from patent US12343326B2, “Psychoactive medicines and their use for treating psychiatric and neurological conditions and disorders” (Transcend Therapeutics, Inc., priority 2021, dated 2025).
Where two headings read alike, the source gives them in different places.

Columns and labels:
Assay in all cases: β-arrestin based GPCR screen (PathHunter / GPCRmax), agonist mode
Format in all cases: cell-based
Parameters in all cases: host or cells: PathHunter cell lines
168 GPCRs [1] = biological target: 168 GPCRs (Homo sapiens, UniProt P30874)
Description: (§1) For agonist determination, cells were incubated with sample to induce response. […] Vehicle concentration was 1%.

168 GPCRs [2] = biological target: 168 GPCRs (Homo sapiens, UniProt P11229); conditions: CHRM1, Agonist
Sequence of 168 GPCRs (Homo sapiens, UniProt P11229) (P11229 whole entry): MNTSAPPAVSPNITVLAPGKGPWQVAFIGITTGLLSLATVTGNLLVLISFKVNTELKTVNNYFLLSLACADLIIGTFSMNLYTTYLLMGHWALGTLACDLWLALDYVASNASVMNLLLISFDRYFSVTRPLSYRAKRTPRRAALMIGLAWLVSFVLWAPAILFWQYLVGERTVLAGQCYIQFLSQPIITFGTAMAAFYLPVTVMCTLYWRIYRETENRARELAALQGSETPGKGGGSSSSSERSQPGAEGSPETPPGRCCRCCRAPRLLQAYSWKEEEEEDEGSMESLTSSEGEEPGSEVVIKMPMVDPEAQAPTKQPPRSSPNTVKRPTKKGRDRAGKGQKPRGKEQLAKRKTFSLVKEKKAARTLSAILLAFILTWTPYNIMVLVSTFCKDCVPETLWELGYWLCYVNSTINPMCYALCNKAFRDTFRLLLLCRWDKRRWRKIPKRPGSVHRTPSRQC
Description: as §1

168 GPCRs [3] = biological target: 168 GPCRs (Homo sapiens, UniProt P48146)
Sequence of 168 GPCRs (Homo sapiens, UniProt P48146) (P48146 whole entry): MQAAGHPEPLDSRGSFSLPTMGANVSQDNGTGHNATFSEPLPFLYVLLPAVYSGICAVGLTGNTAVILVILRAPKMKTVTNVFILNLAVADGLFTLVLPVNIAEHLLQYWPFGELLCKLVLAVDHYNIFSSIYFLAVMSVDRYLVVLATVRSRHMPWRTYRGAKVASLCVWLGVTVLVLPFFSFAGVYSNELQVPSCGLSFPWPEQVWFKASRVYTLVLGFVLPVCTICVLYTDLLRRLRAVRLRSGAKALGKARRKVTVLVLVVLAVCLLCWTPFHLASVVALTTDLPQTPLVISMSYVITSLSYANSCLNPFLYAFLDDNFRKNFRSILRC
Description: as §1

168 GPCRs [4] = biological target: 168 GPCRs (Homo sapiens, UniProt Q969V1)
Sequence of 168 GPCRs (Homo sapiens, UniProt Q969V1) (Q969V1 whole entry): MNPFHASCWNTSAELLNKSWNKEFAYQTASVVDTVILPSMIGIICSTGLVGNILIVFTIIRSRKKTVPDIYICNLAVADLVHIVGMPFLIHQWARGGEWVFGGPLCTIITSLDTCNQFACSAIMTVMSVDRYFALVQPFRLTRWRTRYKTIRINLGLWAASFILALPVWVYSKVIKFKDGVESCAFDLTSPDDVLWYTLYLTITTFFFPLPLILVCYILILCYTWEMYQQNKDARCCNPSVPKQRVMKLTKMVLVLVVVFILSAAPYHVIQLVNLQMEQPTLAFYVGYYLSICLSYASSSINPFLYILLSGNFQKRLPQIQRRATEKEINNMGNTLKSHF
Description: as §1

168 GPCRs [5] = biological target: 168 GPCRs (Homo sapiens, UniProt P41143)
Description: as §1

168 GPCRs [6] = biological target: 168 GPCRs (Homo sapiens, UniProt P48039); conditions: MTNR1A
Sequence of 168 GPCRs (Homo sapiens, UniProt P48039) (P48039 whole entry): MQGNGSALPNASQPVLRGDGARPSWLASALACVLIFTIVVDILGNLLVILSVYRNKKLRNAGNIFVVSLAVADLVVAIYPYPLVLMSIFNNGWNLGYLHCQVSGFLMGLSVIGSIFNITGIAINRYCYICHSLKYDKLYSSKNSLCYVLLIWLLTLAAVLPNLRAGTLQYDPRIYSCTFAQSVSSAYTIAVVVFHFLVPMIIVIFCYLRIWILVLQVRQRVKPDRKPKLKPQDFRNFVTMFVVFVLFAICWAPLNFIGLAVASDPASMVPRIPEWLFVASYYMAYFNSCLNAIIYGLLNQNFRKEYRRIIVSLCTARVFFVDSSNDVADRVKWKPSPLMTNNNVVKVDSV
Description: as §1

168 GPCRs [7] = biological target: 168 GPCRs (Homo sapiens, UniProt Q16602); conditions: Agonist
Sequence of 168 GPCRs (Homo sapiens, UniProt Q16602) (Q16602 23-461): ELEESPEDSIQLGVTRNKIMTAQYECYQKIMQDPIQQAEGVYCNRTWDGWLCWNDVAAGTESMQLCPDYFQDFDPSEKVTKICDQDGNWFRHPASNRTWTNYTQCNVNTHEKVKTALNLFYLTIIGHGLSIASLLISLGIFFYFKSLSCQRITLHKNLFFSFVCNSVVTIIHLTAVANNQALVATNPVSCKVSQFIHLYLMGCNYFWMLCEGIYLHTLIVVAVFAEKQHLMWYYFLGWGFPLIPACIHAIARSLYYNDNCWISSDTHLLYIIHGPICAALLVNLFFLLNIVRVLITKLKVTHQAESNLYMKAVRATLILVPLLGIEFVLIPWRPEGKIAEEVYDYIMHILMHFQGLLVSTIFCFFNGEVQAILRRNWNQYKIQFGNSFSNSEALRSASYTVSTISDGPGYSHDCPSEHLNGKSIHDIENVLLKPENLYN
Description: as §1

168 GPCRs [8] = biological target: 168 GPCRs (Homo sapiens, UniProt P43119); conditions: PTGIR
Sequence of 168 GPCRs (Homo sapiens, UniProt P43119) (P43119 whole entry): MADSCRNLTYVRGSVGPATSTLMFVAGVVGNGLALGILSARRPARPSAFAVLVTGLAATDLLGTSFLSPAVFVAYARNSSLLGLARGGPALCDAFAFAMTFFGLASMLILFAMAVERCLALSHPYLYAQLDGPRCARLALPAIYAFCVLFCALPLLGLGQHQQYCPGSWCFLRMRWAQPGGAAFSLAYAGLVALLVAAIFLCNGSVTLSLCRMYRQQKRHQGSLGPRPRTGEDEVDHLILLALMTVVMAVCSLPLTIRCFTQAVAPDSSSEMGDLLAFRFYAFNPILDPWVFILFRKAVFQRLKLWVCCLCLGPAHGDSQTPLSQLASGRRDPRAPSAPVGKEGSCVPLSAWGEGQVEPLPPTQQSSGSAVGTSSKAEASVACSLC
Description: as §1

168 GPCRs [9] = biological target: 168 GPCRs (Homo sapiens, UniProt P49238)
Description: as §1

168 GPCRs [10] = biological target: 168 GPCRs (Homo sapiens, UniProt P30411); conditions: BDKRB2; Agonist; 1 uM
Description: as §1

168 GPCRs [11] = biological target: 168 GPCRs (Homo sapiens, UniProt O95838); conditions: GLP2R
Description: as §1

168 GPCRs [12] = biological target: 168 GPCRs (Homo sapiens, UniProt P49682)
Sequence of 168 GPCRs (Homo sapiens, UniProt P49682) (P49682 whole entry): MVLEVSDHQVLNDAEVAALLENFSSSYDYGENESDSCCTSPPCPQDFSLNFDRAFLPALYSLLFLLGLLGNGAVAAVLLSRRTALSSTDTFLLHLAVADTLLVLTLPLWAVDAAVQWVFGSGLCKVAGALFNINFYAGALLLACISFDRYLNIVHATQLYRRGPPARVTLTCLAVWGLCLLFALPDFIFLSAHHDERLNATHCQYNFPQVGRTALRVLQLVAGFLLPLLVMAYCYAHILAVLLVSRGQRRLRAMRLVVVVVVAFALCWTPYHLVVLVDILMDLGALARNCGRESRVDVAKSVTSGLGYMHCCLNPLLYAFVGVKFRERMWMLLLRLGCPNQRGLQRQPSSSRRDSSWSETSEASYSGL
Description: as §1

168 GPCRs [13] = biological target: 168 GPCRs (Homo sapiens, UniProt Q03431)
Sequence of 168 GPCRs (Homo sapiens, UniProt Q03431) (Q03431 27-593): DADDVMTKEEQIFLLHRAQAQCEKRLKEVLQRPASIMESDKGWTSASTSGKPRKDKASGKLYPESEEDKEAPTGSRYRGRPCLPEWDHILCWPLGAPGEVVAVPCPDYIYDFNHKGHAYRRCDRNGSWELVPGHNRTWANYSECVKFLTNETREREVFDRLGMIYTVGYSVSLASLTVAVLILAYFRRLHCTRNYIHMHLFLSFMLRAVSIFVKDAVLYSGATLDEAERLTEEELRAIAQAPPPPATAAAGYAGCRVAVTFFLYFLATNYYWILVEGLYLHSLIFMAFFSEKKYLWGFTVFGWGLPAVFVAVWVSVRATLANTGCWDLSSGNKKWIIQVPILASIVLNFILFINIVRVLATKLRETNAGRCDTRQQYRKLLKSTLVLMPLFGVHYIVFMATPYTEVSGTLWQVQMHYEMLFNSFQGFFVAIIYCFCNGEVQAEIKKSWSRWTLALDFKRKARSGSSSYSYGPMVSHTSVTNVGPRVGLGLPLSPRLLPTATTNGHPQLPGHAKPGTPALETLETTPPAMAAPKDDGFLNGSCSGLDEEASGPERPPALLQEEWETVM
Description: as §1

168 GPCRs [14] = biological target: 168 GPCRs (Homo sapiens, UniProt Q99500)
Description: as §1

168 GPCRs [15] = biological target: 168 GPCRs (Homo sapiens, UniProt P32245); conditions: MC4R
Description: as §1

168 GPCRs [16] = biological target: 168 GPCRs (Homo sapiens, UniProt P32238); conditions: CCKAR, Agonist
Sequence of 168 GPCRs (Homo sapiens, UniProt P32238) (P32238 whole entry): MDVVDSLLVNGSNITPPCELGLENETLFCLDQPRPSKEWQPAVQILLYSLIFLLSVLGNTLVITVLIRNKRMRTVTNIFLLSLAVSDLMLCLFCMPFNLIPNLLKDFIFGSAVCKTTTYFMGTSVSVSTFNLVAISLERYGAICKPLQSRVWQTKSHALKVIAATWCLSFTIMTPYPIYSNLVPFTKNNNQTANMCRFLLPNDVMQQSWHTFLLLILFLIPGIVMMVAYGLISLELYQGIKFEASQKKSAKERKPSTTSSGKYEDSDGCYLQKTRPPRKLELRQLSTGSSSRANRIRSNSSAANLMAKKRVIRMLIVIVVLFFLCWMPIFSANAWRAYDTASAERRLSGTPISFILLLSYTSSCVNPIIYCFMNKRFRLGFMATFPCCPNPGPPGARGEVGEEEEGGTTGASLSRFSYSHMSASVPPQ
Description: as §1

168 GPCRs [17] = biological target: 168 GPCRs (Homo sapiens, UniProt Q96LB2)
Description: as §1

168 GPCRs [18] = biological target: 168 GPCRs (Homo sapiens, UniProt P21728)
Sequence of 168 GPCRs (Homo sapiens, UniProt P21728) (P21728 whole entry): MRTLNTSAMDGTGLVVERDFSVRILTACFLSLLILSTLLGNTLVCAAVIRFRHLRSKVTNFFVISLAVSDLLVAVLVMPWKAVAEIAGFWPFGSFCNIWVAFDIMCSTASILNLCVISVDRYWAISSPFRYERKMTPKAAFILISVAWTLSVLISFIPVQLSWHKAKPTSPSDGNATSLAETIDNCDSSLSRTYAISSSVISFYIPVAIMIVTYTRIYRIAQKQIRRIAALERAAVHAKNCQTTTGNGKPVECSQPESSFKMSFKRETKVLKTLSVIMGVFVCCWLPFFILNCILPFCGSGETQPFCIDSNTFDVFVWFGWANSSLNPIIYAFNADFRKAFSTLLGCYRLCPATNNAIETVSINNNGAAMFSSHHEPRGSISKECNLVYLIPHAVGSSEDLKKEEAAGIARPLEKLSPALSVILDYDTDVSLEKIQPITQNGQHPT
Description: as §1

168 GPCRs [19] = biological target: 168 GPCRs (Homo sapiens, UniProt P08913); conditions: ADRA2A, Agonist
Description: as §1

168 GPCRs [20] = biological target: 168 GPCRs (Homo sapiens, UniProt Q969F8); conditions: KISS1R
Sequence of 168 GPCRs (Homo sapiens, UniProt Q969F8) (Q969F8 whole entry): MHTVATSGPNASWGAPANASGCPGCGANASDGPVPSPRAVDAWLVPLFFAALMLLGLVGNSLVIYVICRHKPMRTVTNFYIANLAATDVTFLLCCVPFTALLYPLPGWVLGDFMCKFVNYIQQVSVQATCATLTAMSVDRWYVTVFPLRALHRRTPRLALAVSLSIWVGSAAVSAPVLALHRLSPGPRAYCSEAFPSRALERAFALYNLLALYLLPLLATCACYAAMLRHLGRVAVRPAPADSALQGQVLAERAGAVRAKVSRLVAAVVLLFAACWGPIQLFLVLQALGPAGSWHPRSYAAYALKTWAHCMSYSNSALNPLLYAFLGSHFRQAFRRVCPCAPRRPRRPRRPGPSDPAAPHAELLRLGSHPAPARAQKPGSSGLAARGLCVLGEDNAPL
Description: as §1

168 GPCRs [21] = biological target: 168 GPCRs (Homo sapiens, UniProt P30559); conditions: OXTR
Sequence of 168 GPCRs (Homo sapiens, UniProt P30559) (P30559 whole entry): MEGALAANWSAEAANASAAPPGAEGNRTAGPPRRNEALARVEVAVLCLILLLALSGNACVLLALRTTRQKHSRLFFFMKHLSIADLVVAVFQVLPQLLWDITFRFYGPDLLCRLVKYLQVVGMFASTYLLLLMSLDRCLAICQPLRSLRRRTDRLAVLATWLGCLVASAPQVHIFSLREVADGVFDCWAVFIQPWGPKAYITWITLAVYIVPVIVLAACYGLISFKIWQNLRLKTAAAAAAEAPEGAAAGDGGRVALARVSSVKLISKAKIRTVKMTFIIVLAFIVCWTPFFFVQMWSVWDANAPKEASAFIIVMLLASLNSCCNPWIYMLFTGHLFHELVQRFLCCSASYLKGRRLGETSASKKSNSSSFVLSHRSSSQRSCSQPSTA
Description: as §1

SMILES: CNC(C)C(=O)c1ccc2c(c1)OCO2 (stereo not drawn) [methylone, 3,4-methylenedioxy-N-methylcathinone]
- activity at 10 µM (168 GPCRs [1]; SSTR2, Agonist mode, 10 uM): 0.7%
- activity at 1 µM (168 GPCRs [1]; SSTR2, Agonist, 1 uM): 0%
- activity at 1 µM (168 GPCRs [2]; 1 uM): -9.1%
- activity at 10 µM (168 GPCRs [2]; 10 uM): 8.5%
- activity at 10 µM (168 GPCRs [3]; NPBWR2, Agonist mode, 10 uM): 1.35%
- activity at 1 µM (168 GPCRs [3]; NPBWR2, Agonist, 1 uM): -0.3%
- activity at 10 µM (168 GPCRs [4]; MCHR2, Agonist mode, 10 uM): -0.7%
- activity at 1 µM (168 GPCRs [4]; MCHR2, Agonist, 1 uM): -1.5%
- activity at 10 µM (168 GPCRs [5]; OPRD1, Agonist mode, 10 uM): -1.5%
- activity at 1 µM (168 GPCRs [5]; OPRD1, Agonist, 1 uM): -2%
- activity at 10 µM (168 GPCRs [6]; Agonist mode, 10 uM): -11.7%
- activity at 1 µM (168 GPCRs [6]; Agonist, 1 uM): -12.3%
- activity at 1 µM (168 GPCRs [7]; CALCRL-RAMP1, read-out: % Activity): -2.6%
- activity at 10 µM (168 GPCRs [7]; CALCRL-RAMP1): -0.2%
- activity at 1 µM (168 GPCRs [7]; CALCRL-RAMP2): 0.1%
- activity at 10 µM (168 GPCRs [7]; CALCRL-RAMP2): 2.8%
- activity at 1 µM (168 GPCRs [7]; CALCRL-RAMP3, read-out: % Activity): -2.2%
- activity at 10 µM (168 GPCRs [7]; CALCRL-RAMP3): 2.2%
- activity at 10 µM (168 GPCRs [8]; Agonist mode, 10 uM): -2.3%
- activity at 1 µM (168 GPCRs [8]; Agonist, 1 uM): -4.4%
- activity at 10 µM (168 GPCRs [9]; CX3CR1, Agonist mode, 10 uM): -0.4%
- activity at 1 µM (168 GPCRs [9]; CX3CR1, Agonist, 1 uM): 0%
- activity at 1 µM (168 GPCRs [10]): -3.6%
- activity at 10 µM (168 GPCRs [11]; Agonist mode, 10 uM): -13%
- activity at 1 µM (168 GPCRs [11]; Agonist, 1 uM): -1.5%
- activity at 10 µM (168 GPCRs [12]; CXCR3, Agonist mode, 10 uM): 1.6%
- activity at 1 µM (168 GPCRs [12]; CXCR3, Agonist, 1 uM): -0.2%
- activity at 10 µM (168 GPCRs [13]; PTHR1, Agonist mode, 10 uM): 0.1%
- activity at 1 µM (168 GPCRs [13]; PTHR1, Agonist, 1 uM): 0%
- activity at 10 µM (168 GPCRs [14]; EDG3, Agonist mode, 10 uM): -8.6%
- activity at 1 µM (168 GPCRs [14]; EDG3, Agonist, 1 uM): -9.4%
- activity at 10 µM (168 GPCRs [15]; Agonist mode, 10 uM): -1.1%
- activity at 1 µM (168 GPCRs [15]; Agonist, 1 uM): -1.4%
- activity at 1 µM (168 GPCRs [16]; 1 uM): 0.1%
- activity at 10 µM (168 GPCRs [16]; 10 uM): 0.3%
- activity at 10 µM (168 GPCRs [17]; MRGPRX1, Agonist mode, 10 uM): -1.5%
- activity at 1 µM (168 GPCRs [17]; MRGPRX1, Agonist, 1 uM): -1.7%
- activity at 10 µM (168 GPCRs [18]; DRD1, Agonist mode, 10 uM): -1.6%
- activity at 1 µM (168 GPCRs [18]; DRD1, Agonist, 1 uM): -1.6%
- activity at 1 µM (168 GPCRs [19]; 1 uM): -3.8%
- activity at 10 µM (168 GPCRs [19]; 10 uM): -3.8%
- activity at 10 µM (168 GPCRs [20]; Agonist mode, 10 uM): -3.7%
- activity at 1 µM (168 GPCRs [20]; Agonist, 1 uM): -5.5%
- activity at 10 µM (168 GPCRs [21]; Agonist mode, 10 uM): -0.5%
- activity at 1 µM (168 GPCRs [21]; Agonist, 1 uM): -0.6%
